molecular target: T1, ligand binding domain of human ROR gamma (Homo sapiens, UniProt P51449); assay: ROR gamma reporter gene assay (GAL4-RORγ LBD luciferase, Dual-Glo); type: cell-based; details: HEK293T cells transfected with pM-ROR gamma, 8 concentrations 3.5 nM to 10.5 μM, 24 h incubation; read-out: result (pIC50, inhibition of RORγ transcriptional activity) (converted)
T1 construct: NM_001001523; expressed in transfected cells; host or cells: HEK293T
T1 sequence (P51449 247-497 isoform P51449-2): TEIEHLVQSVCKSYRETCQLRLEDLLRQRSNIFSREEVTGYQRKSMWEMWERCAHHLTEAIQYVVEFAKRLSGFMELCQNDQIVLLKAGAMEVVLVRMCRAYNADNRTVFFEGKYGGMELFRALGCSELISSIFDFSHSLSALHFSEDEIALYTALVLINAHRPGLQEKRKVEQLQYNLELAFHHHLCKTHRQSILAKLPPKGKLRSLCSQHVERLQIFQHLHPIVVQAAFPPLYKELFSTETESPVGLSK
In short: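 First, HEK293T cells are transfected with the GAL4–RORγ LBD construct, a 5×UAS luciferase reporter and a constitutive renilla control. Next, test compounds are added over eight concentrations (3.5 nM to 10.5 μM). After 24 h at 37 °C, Dual-Glo luminescence is measured and pIC50 fitted.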

SMILES | IC50 [pM]
O=C(CN(Cc1cccc(F)c1F)C(=O)c1cnn([C@H]2CC[C@H](C(=O)O)CC2)c1C(F)(F)F)c1c(Cl)cncc1Cl [Example 43, trans-4-(4-((2-(3,5-dichloropyridin-4-yl)-2-oxoethyl)(2,3-difluorobenzyl)carbamoyl)-5-(trifluoromethyl)-1H-pyrazol-1-yl)cyclohexanecarboxylic acid] | 33900
O=C(CN(Cc1ccc(F)c(F)c1)C(=O)c1cnn([C@H]2CC[C@H](C(=O)O)CC2)c1C(F)(F)F)c1c(Cl)cncc1Cl [Example 44, trans-4-(4-((2-(3,5-dichloropyridin-4-yl)-2-oxoethyl)(3,4-difluorobenzyl)carbamoyl)-5-(trifluorornethyl)-1H-pyrazol-1-yl)cyclohexanecarboxylic acid] | 14800
O=C(CN(Cc1cc(F)ccc1F)C(=O)c1cnn([C@H]2CC[C@H](C(=O)O)CC2)c1C(F)(F)F)c1c(Cl)cncc1Cl [Example 45, trans-4-(4-((2-(3,5-dichloropyridin-4-yl)-2-oxoethyl)(2,5-difluorobenzyl)carbamoyl)-5-(trifluorornethyl)-1H-pyrazol-1-yl)cyclohexanecarboxylic acid] | 58900
O=C(CN(Cc1ccco1)C(=O)c1cnn([C@H]2CC[C@H](C(=O)O)CC2)c1C(F)(F)F)c1c(Cl)cncc1Cl [Example 46, trans-4-(4-((2-(3,5-dichloropyridin-4-yl)-2-oxoethyl)(furan-2-ylmethyl)carbamoyl)-5-(trifluoromethyl)-1H-pyrazol-1-yl)cyclohexanecarboxylic acid] | 398000
O=C(CN(Cc1ccoc1)C(=O)c1cnn([C@H]2CC[C@H](C(=O)O)CC2)c1C(F)(F)F)c1c(Cl)cncc1Cl [Example 47, trans-4-(4-((2-(3,5-dichloropyridin-4-yl)-2-oxoethyl)(furan-3-ylmethyl)carbamoyl)-5-(trifluoromethyl)-1H-pyrazol-1-yl)cyclohexanecarboxylic acid] | 102000
O=C(CN(Cc1cnccn1)C(=O)c1cnn([C@H]2CC[C@H](C(=O)O)CC2)c1C(F)(F)F)c1c(Cl)cncc1Cl [Example 48, trans-4-(4-((2-(3,5-dichloropyridin-4-yl)-2-oxoethyl)(pyrazin-2-ylmethyl)carbarnoyl)-5-(trifluoromethyl)-1H-pyrazol-1-yl)cyclohexanecarboxylic acid] | > 1e+07
Cc1cncc(Cl)c1C(=O)CN(Cc1cc(F)cc(F)c1)C(=O)c1cnn([C@H]2CC[C@H](C(=O)O)CC2)c1C(F)(F)F [Example 49, trans-4-(4-((2-(3-chloro-5-methylpyridin-4-yl)-2-oxoethyl)(3,5-difluorobenzyl)carbamoyl)-5-(trifluoromethyl)-1H-pyrazol-1-yl)cyclohexanecarboxylic acid] | 40700
O=C(CN(Cc1cc(F)cc(F)c1)C(=O)c1cnn([C@H]2CC[C@H](C(=O)O)CC2)c1C(F)(F)F)c1c(F)cncc1Cl [Example 50, trans-4-(4-((2-(3-chloro-5-fluoropyridin-4-yl)-2-oxoethyl)(3,5-difluorobenzyl)carbamoyl)-5-(trifluoromethyl)-1H-pyrazol-1-yl)cyclohexanecarboxylic acid] | 70800
O=C(CN(Cc1cc(F)cc(F)c1)C(=O)c1cnn([C@H]2CC[C@H](C(=O)O)CC2)c1C(F)(F)F)c1c(F)cncc1F [Example 51, trans-4-(4-((3,5-difluorobenzyl)(2-(3,5-difluoropyridin-4-yl)-2-oxoethyl)carbamoyl)-5-(trifluoromethyl)-1H-pyrazol-1-yl)cyclohexanecarboxylic acid] | 4.07e+06
Cc1cncc(C)c1C(=O)CN(Cc1cc(F)cc(F)c1)C(=O)c1cnn([C@H]2CC[C@H](C(=O)O)CC2)c1C(F)(F)F [Example 52] | 245000
O=C(CN(Cc1cc(F)cc(F)c1)C(=O)c1cnn([C@H]2CC[C@H](C(=O)O)CC2)c1C(F)(F)F)c1c(Cl)cccc1Cl [Example 53, trans-4-(4-((2-(2,6-dichlorophenyl)-2-oxoethyl)(3,5-difluorobenzyl)carbamoyl)-5-(trifluoromethyl)-1H-pyrazol-1-yl)cyclohexanecarboxylic acid] | 16200
COc1cccc(Cl)c1C(=O)CN(Cc1cc(F)cc(F)c1)C(=O)c1cnn([C@H]2CC[C@H](C(=O)O)CC2)c1C(F)(F)F [Example 54, trans-4-(4-((2-(2-chloro-6-methoxyphenyl)-2-oxoethyl)(3,5-difluorobenzyl)carbamoyl)-5-(trifluoromethyl)-1H-pyrazol-1-yl)cyclohexanecarboxylic acid] | 70800
O=C(CN(Cc1cc(F)cc(F)c1)C(=O)c1cnn([C@H]2CC[C@H](C(=O)O)CC2)c1C(F)(F)F)c1c(Cl)cc(F)cc1Cl [Example 55, trans-4-(4-((2-(2,6-dichloro-4-fluorophenyl)-2-oxoethyl)(3,5-difluorobenzyl)carbamoyl)-5-(trifluoromethyl)-1H-pyrazol-1-yl)cyclohexanecarboxylic acid] | 8910
O=C(CN(Cc1cc(F)cc(F)c1)C(=O)c1cnn([C@H]2CC[C@H](C(=O)O)CC2)c1C(F)(F)F)c1c(Cl)cc(Cl)cc1Cl [Example 56, trans-4-(4-((3,5-difluorobenzyl)(2-oxo-2-(2,4,6-trichlorophenyl)ethyl)carbamoyl)-5-(trifluoromethyl)-1H-pyrazol-1-yl)cyclohexanecarboxylic acid] | 15500
O=C(CN(Cc1cc(F)cc(F)c1)C(=O)c1cnn([C@H]2CC[C@H](C(=O)O)CC2)c1C(F)(F)F)c1c(Cl)cc(C(F)(F)F)cc1Cl [Example 57, trans-4-(4-((2-(2,6-dichloro-4-(trifluoromethyl)phenyl)-2-oxoethyl)(3,5-difluorobenzyl)carbamoyl)-5-(trifluoromethyl)-1H-pyrazol-1-yl)cyclohexanecarboxylic acid] | 38000
N#Cc1cc(Cl)c(C(=O)CN(Cc2cc(F)cc(F)c2)C(=O)c2cnn([C@H]3CC[C@H](C(=O)O)CC3)c2C(F)(F)F)c(Cl)c1 [Example 58, trans-4-(4-((2-(2,6-dichloro-4-cyanophenyl)-2-oxoethyl)(3,5-difluorobenzyl)carbamoyl)-5-(trifluorornethyl)-1H-pyrazol-1-yl)cyclohexanecarboxylic acid] | 135000
O=C(CN(Cc1cc(F)cc(F)c1)C(=O)c1cnn([C@H]2CC[C@H](C(=O)O)CC2)c1C(F)(F)F)c1cc(Cl)cc(Cl)c1 [Example 59, trans-4-(4-((2-(3,5-dichlorophenyl)-2-oxoethyl)(3,5-difluorobenzyl)carbamoyl)-5-(trifluoromethyl)-1H-pyrazol-1-yl)cyclohexanecarboxylic acid] | 5.89e+06
O=C(CN(Cc1cc(F)cc(F)c1)C(=O)c1cnn([C@H]2CC[C@H](C(=O)O)CC2)c1C(F)(F)F)c1cc(F)cc(F)c1 [Example 60, trans-4-(4-((3,5-difluorobenzyl)(2-(3,5-difluorophenyl)-2-oxoethyl)carbamoyl)-5-(trifluoromethyl)-1H-pyrazol-1-yl)cyclohexanecarboxylic acid] | > 1e+07
O=C(CN(Cc1cc(F)cc(F)c1)C(=O)c1cnn([C@H]2CC[C@H](C(=O)O)CC2)c1C(F)(F)F)c1ccc(F)cc1Cl [Example 61, trans-4-(4-((2-(2-chloro-4-fluorophenyl)-2-oxoethyl)(3,5-difluorobenzyl)carbamoyl)-5-(trifluoromethyl)-1H-pyrazol-1-yl)cyclohexanecarboxylic acid] | 200000
O=C(CN(Cc1cc(F)cc(F)c1)C(=O)c1cnn([C@H]2CC[C@H](C(=O)O)CC2)c1C(F)(F)F)c1ccncc1 [Example 62, trans-4-(4-((3,5-difluorobenzyl)(2-oxo-2-(pyridin-4-yl)ethyl)carbamoyl)-5-(trifluoromethyl)-1H-pyrazol-1-yl)cyclohexanecarboxylic acid] | > 1e+07
Cc1coc(C)c1C(=O)CN(Cc1cc(F)cc(F)c1)C(=O)c1cnn([C@H]2CC[C@H](C(=O)O)CC2)c1C(F)(F)F [Example 63, trans-4-(4-((3,5-difluorobenzyl)(2-(2,4-dimethylfuran-3-yl)-2-oxoethyl)carbamoyl)-5-(trifluoromethyl)-1H-pyrazol-1-yl)cyclohexanecarboxylic acid] | 3.39e+06
Cc1noc(C)c1C(=O)CN(Cc1cc(F)cc(F)c1)C(=O)c1cnn([C@H]2CC[C@H](C(=O)O)CC2)c1C(F)(F)F [Example 64, trans-4-(4-((3,5-difluorobenzyl)(2-(3,5-dimethylisoxazol-4-yl)-2-oxoethyl)carbamoyl)-5-(trifluoromethyl)-1H-pyrazol-1-yl)cyclohexanecarboxylic acid] | > 1e+07
O=C(CN(Cc1cc(F)cc(F)c1)C(=O)c1cnn([C@H]2CC[C@H](C(=O)O)CC2)c1C(F)(F)F)C1CCCCC1 [Example 65, trans-4-(4-((2-cyclohexyl-2-oxoethyl)(3,5-difluorobenzyl)carbamoyl)-5-(trifluoromethyl)-1H-pyrazol-1-yl)cyclohexanecarboxylic acid] | > 1e+07
O=C(CN(Cc1cc(F)cc(F)c1)C(=O)c1cnn([C@H]2CC[C@H](C(=O)O)CC2)c1C(F)(F)F)c1c(Cl)cc(C2CC2)cc1Cl [Example 66, trans-4-(4-((2-(2,6-dichloro-4-cyclopropylphenyl)-oxoethyl)(3,5-difluorobenzyl)carbamoyl)-5-(trifluoromethyl)-1H-pyrazol-1-yl)cyclohexanecarboxylic acid] | 83200

Reference: patent publication US9365522B2, “Pyrazole amide derivative” (AMGEN INC., priority 2015, dated 2016)
